Source: ChEMBL document CHEMBL2331209, “Mechanistic studies of the inactivation of tyrosinase by resorcinol” (Bioorg Med Chem, 2013)

Columns and labels:
[1] = molecular target: T1, Tyrosinase (Homo sapiens) (UniProt P14679); test: Inactivation of tyrosinase (unknown origin) assessed as decay half-life using 4-methylcatechol substrate at 850 uM equimolar concentrations resorcinol by spectrophotometry
T1 sequence (whole entry): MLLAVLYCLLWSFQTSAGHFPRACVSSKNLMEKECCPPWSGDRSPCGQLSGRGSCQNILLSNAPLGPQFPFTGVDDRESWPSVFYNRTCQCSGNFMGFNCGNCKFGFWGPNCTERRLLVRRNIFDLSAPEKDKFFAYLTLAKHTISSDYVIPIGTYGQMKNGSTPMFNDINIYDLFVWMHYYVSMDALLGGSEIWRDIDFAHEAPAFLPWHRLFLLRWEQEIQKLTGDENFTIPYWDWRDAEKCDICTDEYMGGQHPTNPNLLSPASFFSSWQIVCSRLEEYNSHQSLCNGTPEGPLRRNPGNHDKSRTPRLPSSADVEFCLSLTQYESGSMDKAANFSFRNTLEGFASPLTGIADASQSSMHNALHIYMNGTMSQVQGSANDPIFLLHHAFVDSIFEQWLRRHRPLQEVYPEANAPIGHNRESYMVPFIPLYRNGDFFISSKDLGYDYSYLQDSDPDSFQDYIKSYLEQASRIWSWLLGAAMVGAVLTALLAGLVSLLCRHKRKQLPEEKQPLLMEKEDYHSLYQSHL

[2] = molecular target: T1, Tyrosinase (Homo sapiens); test: Inactivation of tyrosinase (unknown origin) assessed as total oxygen uptake using 4-methylcatechol substrate at 850 uM equimolar concentrations resorcinol by spectrophotometry
[3] = molecular target: T1, Tyrosinase (Homo sapiens); test: Inactivation of tyrosinase (unknown origin) assessed as initial rate of oxygen utilization at absorbance 400 nm using 4-methylcatechol substrate at 850 uM equimolar concentrations resorcinol by spectrophotometry
[4] = molecular target: T1, Tyrosinase (Homo sapiens); test: Inactivation of tyrosinase (unknown origin) assessed as initial rate of oxygen utilization using 4-methylcatechol substrate at 850 uM equimolar concentrations resorcinol by spectrophotometry
[5] = molecular target: T1, Tyrosinase (Homo sapiens); test: Inactivation of tyrosinase (unknown origin) assessed as decay half-life using 4-methylcatechol substrate at 850 uM by spectrophotometry
[6] = molecular target: T1, Tyrosinase (Homo sapiens); test: Inactivation of tyrosinase (unknown origin) assessed as total oxygen uptake using 4-methylcatechol substrate at 850 uM by spectrophotometry
[7] = molecular target: T1, Tyrosinase (Homo sapiens); test: Inactivation of tyrosinase (unknown origin) assessed as initial rate of oxygen utilization at absorbance 400 nm using 4-methylcatechol substrate at 850 uM by spectrophotometry
[8] = molecular target: T1, Tyrosinase (Homo sapiens); test: Inactivation of tyrosinase (unknown origin) assessed as initial rate of oxygen utilization using 4-methylcatechol substrate at 850 uM by spectrophotometry

`Oc1cccc(O)c1Cl` gave a Decay half-life [1] of 72%, an Activity [2] of 69% and an Activity [3] of 79%. The Activity [4] was 60%.
Work on `Oc1cc(O)c(F)cc1F` yielded a Decay half-life [1] of 83%, an Activity [2] of 29% and an Activity [3] of 30%. The Activity [4] was 30%.
Compound `Oc1c(F)c(O)c(F)c(F)c1F` has a Decay half-life [1] of 97%, an Activity [2] of 75% and an Activity [3] of 86%. For the same compound, the Activity [4] was 91%.
`Oc1cc(O)cc(O)c1` showed a Decay half-life [1] of 81%, an Activity [2] of 75% and an Activity [3] of 133%. For the same compound, the Activity [4] was 95%.
Compound `Oc1cc(F)cc(O)c1F` has a Decay half-life [1] of 74%, an Activity [2] of 31% and an Activity [3] of 51%. The Activity [4] was 41%.
`Cc1cc(O)cc(O)c1` showed a Decay half-life [1] of 31%, an Activity [2] of 28% and an Activity [3] of 46%. The Activity [4] was 63%.
For `Oc1cccc(O)c1F`, the Decay half-life [1] was 68%, the Activity [2] was 35% and the Activity [3] was 40%. The Activity [4] was 33%.
With `COc1cc(O)cc(O)c1` the Decay half-life [1] was 22%, the Activity [2] was 26% and the Activity [3] was 62%. It also gave an Activity [4] of 64%.
With `Oc1cccc(O)c1O` the Activity [2] was 100%, the Activity [3] was 100% and the Activity [4] was 100%.
Compound `Cc1c(O)cccc1O` has a Decay half-life [1] of 82%, an Activity [2] of 90% and an Activity [3] of 103%. The Activity [4] was 105%.
For `CCc1ccc(O)cc1O`, the Activity [2] was 0%, the Activity [3] was less than 1% and the Activity [4] was 1%.
`Cc1cc(C)c(O)cc1O` gave a Decay half-life [1] of 193%, an Activity [2] of 69% and an Activity [3] of 57%. The Activity [4] was 46%.
`Oc1cccc(O)c1` was tested, and the Activity [5] was 75%, the Activity [6] was 37% and the Activity [7] was 26%. For the same compound, the Activity [8] was 32%.
In the case of `Oc1ccc(F)c(O)c1`, the Activity [2] is reported as 0%, the Activity [3] is reported as 10% and the Activity [4] is reported as 6%.
`Oc1c(Cl)cc(Cl)c(O)c1Cl` showed a Decay half-life [1] of 73%, an Activity [2] of 86% and an Activity [3] of 105%. The Activity [4] was 110%.
Work on `Cc1cc(O)c(C)c(O)c1` yielded a Decay half-life [1] of 82%, an Activity [2] of 117% and an Activity [3] of 103%. For the same compound, the Activity [4] was 97%.
`Oc1ccc(F)c(O)c1F` gave a Decay half-life [1] of 48%, an Activity [2] of 30% and an Activity [3] of 28%. It also gave an Activity [4] of 18%.
In the case of `Oc1cc(O)c(Cl)cc1Cl`, the Decay half-life [1] is reported as 160%, the Activity [2] is reported as 33% and the Activity [3] is reported as 22%. The Activity [4] was 29%.
Work on `Oc1cc(O)cc(F)c1` yielded a Decay half-life [1] of 122%, an Activity [2] of 52% and an Activity [3] of 46%. For the same compound, the Activity [4] was 67%.
